Kd data for 1 compound are collected here from article PMC4774501 (Biomolecules & Therapeutics, 2016).

For this test, the target named is T1, vitamin D receptor (VDR) (Homo sapiens, UniProt P11473).
T1 sequence (P11473 118-427): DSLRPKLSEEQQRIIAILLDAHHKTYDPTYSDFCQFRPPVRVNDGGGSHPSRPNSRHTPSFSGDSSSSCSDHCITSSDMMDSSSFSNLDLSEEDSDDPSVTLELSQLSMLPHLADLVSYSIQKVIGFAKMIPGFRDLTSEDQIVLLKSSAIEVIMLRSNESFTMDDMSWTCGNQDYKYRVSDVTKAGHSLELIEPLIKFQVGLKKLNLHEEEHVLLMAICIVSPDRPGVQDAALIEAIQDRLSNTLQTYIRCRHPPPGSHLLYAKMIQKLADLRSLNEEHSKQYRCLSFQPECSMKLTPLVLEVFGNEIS
Nature of the test: intrinsic tryptophan fluorescence quenching titration. The test is classed as binding.

For the compound `O=c1c(O)c(-c2ccc(O)c(O)c2)oc2cc(O)cc(O)c12` [quercetin], the Kd came to 21.1 ± 4.31 µM.

One may read the Kd as the concentration at which binding is half-saturated. Read a low Kd as tighter binding.
